Test results from patent US20090123565A9, “Copper-dependent non-traditional pro-inflammatory cytokine export and methods, compositions and kits relating thereto” (Maine Medical Center Research Institute, priority 2001, published 2009).
Starred links: 1 amine or outer side, 2 acyl side, 3 side chain; linkers in the order of their positions; H or OH if unused. Positions of bridges follow the written chain, without caps; N, C: chain ends. Non-standard residues stand in square brackets, D forms with d. Residues, ends and D or L forms follow the SMILES beside them. Chains are numbered I, II in the order given. Actinocin(9to1) = Cc1c2oc3c(C)ccc(C(=O)[*:1])c3nc-2c(C(=O)[*:2])c(N)c1=O; NMeV = CN[C@H](C(=O)O)C(C)C; Sar = CNCC(=O)O

System: IL1α release from NIH 3T3 cell transfectants
Assay: Heat shock-induced release of IL1α from NIH 3T3 cell transfectants (immunoblot of conditioned media)
Format: cell-based, human
Conditions: actinomycin D 10 μg/ml
Method: FIG. 5, comprising FIGS. 5A and 5B, depict the involvement of Cu^2+ in IL1α release. FIG. 5A is an image depicting results obtained using NIH 3T3 cells stably transfected with mIL1α-βGal. The cells were incubated for 18 hours at 37 C in the absence and presence of the Cu^2+ chelator, tetrathiomolybdate (TTM) as indicated and the untreated and treated cells either maintained at 37 C or subjected to heat shock as described in FIG. 3. The conditioned medium was evaluated for IL1α-βGal release by IL1α immunoblot analysis, and cell lysates from TTM-treated cells were used to monitor the intracellular level of IL1α-βGal expression. […] FIG. 5B is an image depicting release of IL1α-βGal in myc-S100A13 and IL1α-βGal NIH 3T3 cell cotransfectants and in insert-less vector and mIL1α-βGal NIH 3T3 cell transfectants in the presence and absence actinomycin D (10 μg/ml), as indicated, in response to heat shock. Conditioned media were processed and evaluated for IL1α-βGal immunoblot analysis as described in Tarantini et al. (2001).
Stable NIH 3T3 cell transfectants were generated accordingly with the following cDNA constructs cloned into pMEXneo (Tarantini, et al. 2001; Tarantini, et al. 1995; Tarantini, et al. 1998; LaVallee, et al. 1998; Carreira, et al. 1998; Landriscina, et al., 2001): human S100A13 with an amino-terminal fusion to a 6 Myc Tag (Myc-S100A13) (Landriscina, et al., 2001); human Myc-S100A13ΔBR (Landriscina, et al., 2001); human mIL1α (residues 113-271); human mIL1α with a carboxy-terminal fusion to a βGalactosidase tag (mIL1α-βGal) (Tarantini, et al. 2001); and pIL1α (residues 1-271) with a carboxy-terminal fusion to βGalactosidase (pIL1α-βGal) (Tarantini, et al. 2001). Recombinant human mIL1α was provided by Hoffmann-LaRoche. Recombinant human S100A13, as well as S100A13ΔBR, a S100A13 construct with the basic residue rich domain (residues 88 to 98) deleted, were generated as previously described (Landriscina, et al., 2001).
NIH 3T3 cell transfectants were grown to 70-80% confluency and prior to temperature stress, the cells were washed with serum-free DMEM. The heat shock was performed as previously described (Tarantini et al., 1995) in serum-free DMEM for 110 min at 42° C. Control cultures were incubated at 37° C. in serum-free DMEM. […] Immunoprecipitated and eluted proteins were resolved by 8% and 12% acrylamide SDS-PAGE, respectively, and evaluated by either IL1α (Tarantini, et al. 2001) or Myc (Landriscina, et al., 2001) immunoblot analysis. […] The effects of actinomycin D (Sigma Chemical Co., St. Louis, Mo.), cyclohexamide (Sigma) and tetrathiomolybdate (Sigma-Aldrich) on IL1α release were evaluated as previously reported (LaVallee et al., 1998).

## Cc1c2oc3c(C)ccc(C(=O)N[C@@H]4C(=O)N[C@H](C(C)C)C(=O)N5CCC[C@H]5C(=O)N(C)CC(=O)N(C)[C@@H](C(C)C)C(=O)O[C@@H]4C)c3nc-2c(C(=O)N[C@@H]2C(=O)N[C@H](C(C)C)C(=O)N3CCC[C@H]3C(=O)N(C)CC(=O)N(C)[C@@H](C(C)C)C(=O)O[C@@H]2C)c(N)c1=O [actinomycin D] (I: T[dV]P[Sar][NMeV] / II: T[dV]P[Sar][NMeV]; ester I:1-I:C, II:1-II:C; linker I:N-II:N via Actinocin(9to1))
Myc-S100A13 and IL1α-βGal NIH 3T3 cell cotransfectants
  repression of export of IL1α-βGal in response to heat shock: unable to repress
insert-less vector and IL1α-βGal NIH 3T3 cell cotransfectants
  repression of release of IL1α-βGal in response to heat shock: able to repress
